Entries after “also recorded” stand apart in the source; their conditions may differ.

Assay [1] relates to S. glaucescens. Nature of the assay: Principal component analysis of secondary metabolites of S. glaucescens small scale fermentations with GBLs. Type of assay: cell-based. The settings on record: for induction of secondary metabolite production: S. glaucescens fermented in SMM medium, LC-MS data, versus untreated control (FIG. 17). As for the experimental part: S. glaucescens cells were grown in 3 mL cultures under 96 different conditions of medium, GBL choice, and GBL concentration. Each GBL solution was added to a tube in each of the following concentrations: 0.2 μM, 0.8 μM, 4 μM, 20 μM, and 100 μM. Media were a minimal medium SMM or a yeast enriched complex medium R5 (also called R2YE). The GBL indicated in FIG. 17 as PR001 and PR002 are shown in FIG. 16, and have the chemical formulae, respectively: 3-(1-hydroxyethyl)-4-(hydroxymethyl)dihydrofuran-2(3H)-one; and, 3-(1-hydroxyheptyl)-4-(hydroxymethyl)dihydrofuran-2(3H)-one.
Fermentations were incubated in 24-well blocks (CR 424, Enzyscreen B.V., Netherlands) with lids (1221a), and were shaken at 200 rpm for 5 days at 28° C. in an Infors HT incubator (Infors AG, Switzerland). For analysis, a C18 SPE-IT tip (57234-U from Sigma-Aldrich) was added to each fermentation which were further shaken at 400 rpm for one hour. Tips were removed and rinsed in deionized water, and were analyzed directly or stored for analysis. Analysis was collected at ionsense, Inc. (Saugus, Mass.) vaporized with a DART source at 400 C and 1 mm/s, and mass spectral data collected in a Thermo LTQ. Analysis used Progenesis QI from Nonlinear Dynamics (Waters).
Principal component analysis data of secondary metabolites induced by the GBLs in comparison to control absent GBL are shown in FIG. 17. […] Accordingly, 100 μM GBL was used in large scale fermentions.

The subject of assay [2] is S. coelicolor. The assay is described as follows: Induction of pigmented antibiotic (actinorhodin) production in S. coelicolor plate cultures spotted with GBLs. The settings on record: for production of pigmented antibiotics (actinorhodin): S. coelicolor on SMMS plates, 2 μL spot with 16.5-165 μg racemic GBLs X and XI at inoculation, versus control plates without GBL; for antibiotic production (dark spot): S. coelicolor SMMS plates spotted with 1-100 μg racemic mixture of I-VII and VB-D at inoculation, observed after 42 hours; for dose dependence of antibiotic production (diameter of dark spot): amount of GBL mixture I-VII and VB-D 1-100 μg. Type of assay: cell-based, Streptomyces coelicolor. As for the experimental part: The formulas I-VII in FIG. 10 illustrate the structures of the enantiomers in the mixture of GBLs tested for ability to elicit antibiotic production, the results of which are shown in the plates in FIG. 9. […] The mixture of GBLs was added to a pure culture of non-cognate microorganism S. coelicolor. Streptomycete strains were cultured in complex medium R5 or in minimal medium MMS. See Kieser, T. et al., Practical Streptomyces Genetics, John Innes Institute, 2000.
Spore stock of S. coelicolor was used to inoculate SMMS agar (solid SMM medium) and the spore suspension on the surfaces of the plates was allowed to dry. The GBL amounts were added at the time of inoculation.
The two plates in the top of the photograph of FIG. 9 are controls cultures of S. coelicolor. The control plate on the left is a negative control in which no GBL nor vehicle was added. The control plate on the right was contacted with the vehicle only, which was a mixture of methanol and water.
A racemic mixture of GBLs containing the non-naturally occurring compounds 1-VII and virginiae butenolide-D (VB-D) was synthesized, and an amount of about 500 μg was dissolved in 100 μL of vehicle to yield a 5 mg/ml concentration solution. The plates of the second row from left to right were spotted with 20 μL (100 μg), 10 μL (50 μg), 5 μL (25 μg), and […] of the 10 mg/ml concentration solution, respectively. […] The fifth plate of the third row was spotted with 2 μL (1 μg) of a 1:10 dilution of the 10 mg/ml concentration solution.
FIG. 12 is a photograph of SMMS (supplemented minimal media solid) plates inoculated with a spore stock of S. coelicolor streaked to cover the surface of the medium in the plate. At the time of inoculation, 2 μL of a racemic solution containing each amount of a dilution of the racemic GBLs having formulas X and XI were deposited in the center of a plate. Plate 1a was spotted with 2 μL of a solution containing 16.5 μg of GBLs X and XI. Plates 2a and 2b were spotted with 2 μL of a solution containing 33 μg of GBLs X and XI. Plate 3a was spotted with a solution containing 49.5 μg of GBLs X and XI. Plates 4a and 4b were spotted with a solution containing 66 μg of GBLs X and XI. Plates 5a, 6a, 7a, were spotted with solutions containing 99 μg, 132 μg, and 165 μg of GBLs X and XI, respectively. Racemic mixture GBLs were present in equal molar amounts. […] No pigment production was observed on the control plates shown in FIG. 7 not contacted with GBLs.

Assay [3] concerns S. coelicolor. Nature of the assay: Large scale S. coelicolor fermentation with GBL, extract fractionation and LC-MS identification of induced secondary metabolites. The settings on record: S. coelicolor 300 mL cultures in SMM, 100 μM GBL; for Desferrioxamine B production / Desferrioxamine E production / streptorubin B production / undecylprodigiosin production: 5 days; for Desferrioxamine B production: fraction 28, peak at 1.81, versus untreated control; for Desferrioxamine E production: fraction 28, peak at 2.09, versus untreated control; for streptorubin B production: fraction 41, peak at 3.6, versus untreated control; for undecylprodigiosin production: fraction 41, peak at 3.8, versus untreated control. It counts as cell-based, Streptomyces coelicolor. As for the experimental part:
Yields of both known and unknown bioactive compounds regulated by the presence of signaling hormones are improved by contacting producing cells with an appropriate GBL. Secondary metabolites were isolated from cultures of cells. Triplicate 300 mL cultures of S. coelicolor in SMM, was treated with the synthetic racemic mixture of VB-D and seven enantiomers of the non-cognate GBL shown in FIG. 10, at a total concentration of 100 μM, and an identical culture was grown without GBL. Cells were grown for five days at 29 C shaking at 220 rpm. Triplicates were pooled with GBL-treated and control cultures pooled separately.
A slurry of absorbent resins HP-20, XAD-16, XAD-7 and XAD-4 was added (2-4% weight/volume) and shaking was continued overnight. The resin and cell mass were removed by filtration and were washed three times with 200 mL deionized water. Resin and cell mass were extracted three times with 100-300 mL methanol to elute secondary metabolites from the resin. This extract was concentrated by rotary evaporation to remove extraction solvent.
The crude extract was dissolved in 1-3 mL of dimethylsulfoxide (DMSO) and was injected into a reveleris C18 reverse phase column on a Gilson High-Pressure Liquid Chromatography system. A flow rate of 15 ml/min was run for 40 minutes using mobile phases of methanol with 0.1% formic acid, and water with 0.1% formic acid. Forty-eight fractions were collected from a twenty minutes gradient of solvent from 15% methanol to 95% methanol, and were analyzed for antibacterial content on soft agar lawns of each of a Gram negative indicator strain, Escherichia coli, and a Gram positive indicator strain, Bacillus subtilis.
Further, 10 μL fraction volumes of each fraction were injected into a Waters Xevo G2-S Q-TOF LCMS system for further analytical separation and mass identification.
Fraction 28 of each of the GBL and the control extracts were each analyzed by LC-MS-TOF.
Fraction 41 of each of the GBL and the control extracts were each analyzed by LC-MS-TOF. […] Fraction 41 was subjected to UV chromatogram of diode array HPLC detector analysis. Again at prominent peak at 3.83 was observed. This material was determined to be undecylprodigiosin by mass chromatogram shown in FIG. 25, which has an observed mass of 393.27 and a calculated mass of 394.25.

Setting [4] is: listed as synthetic non-cognate GBL.

With `CC(O)C1C(=O)OCC1CO` (stereo not drawn) [3-(1-hydroxyethyl)-4-(hydroxymethyl)dihydrofuran-2(3H)-one], the “distinction from control secondary metabolites produced absent GBL (principal component analysis)” value in assay [1] (S. glaucescens 3 mL cultures, 5 days, 0.2-100 μM GBL) is on record as “greatest distinction from control”. The “induction of secondary metabolite production” value in assay [1] is on record as “induction of secondary metabolite production”. The “dose dependence of induction of secondary metabolites” value in assay [1] (S. glaucescens, GBL 0.2, 0.8, 4, 20, 100 μM) is given as “in a dose-dependent manner”. In addition, the “concentration of maximal distinction from control” value in assay [1] (S. glaucescens, principal component analysis) turned out to be 100 µM.

As for `CCCCCCC(=O)C1C(=O)OCC1CO` (stereo not drawn) [GBLs X and XI], the “time of induction of production of the pigmented antibiotics” value in assay [2] (S. coelicolor SMMS plates contacted with racemic GBLs X and XI) is “early induction”. Also, the “production of pigmented antibiotics (actinorhodin)” value in assay [2] was “pigmented antibiotic is produced only in response to treatment; also recorded: increased production of pigmented antibiotics”; in assay [2] (listed as X and XI), “production of the purple antibiotic, actinorhodin”. Besides, the “dose dependence of antibiotic production” value in assay [2] (S. coelicolor plates, increasing amount of GBLs X and XI (FIG. 3)) is reported as “dose-dependent increase in antibiotic production”.

As to `CCCCCCC(O)C1C(=O)OCC1CO` (single isomer, unassigned) [3-(1-hydroxyheptyl)-4-(hydroxymethyl)dihydrofuran-2(3H)-one], the “Desferrioxamine B production” value is on record as “induced” in assay [3] and “substantially enhanced or even induced” in assay [3] (setting [4]). For the same molecule, the “Desferrioxamine E production” value in assay [3] is on record as “induced”; in assay [3] (setting [4]), “substantially enhanced or even induced”. The results for the “streptorubin B production” value in assay [3] and in assay [3] (setting [4]) were “induced” and “substantially enhanced or even induced”, respectively. Besides, the undecylprodigiosin production result in assay [3] was “induced”; in assay [3] (setting [4]) it was “substantially enhanced or even induced”. The “production of unknown compound (peak at 1.84)” value in assay [3] (fraction 28, versus untreated control) was “induced”. Further, the “antibiotic production (dark spot)” value in assay [2] (listed as VB-D and seven enantiomer GBLs thereof having the formulas I-VII) was “production of the blue antibiotic, actinorhodin, and red prodiginies”; in assay [2] (listed as compounds 1-VII and virginiae butenolide-D (VB-D)), “produced antibiotic”; in assay [2] (listed as mixture of GBLs), “production of an antibacterial activity was elicited”. Besides, in assay [2] (S. coelicolor SMMS plates with racemic mixture of I-VII and VB-D, after 24 hours), the antibiotic production entry was “No antibiotic production was observed”. Besides, the “dose dependence of antibiotic production (diameter of dark spot)” value in assay [2] (S. coelicolor plates, listed as VB-D and seven enantiomer GBLs thereof having the formulas I-VII) is given as “monotonic dose-dependent response”; in assay [2] (S. coelicolor plates, listed as compounds 1-VII and virginiae butenolide-D (VB-D)) it was “dose-dependent monotonically”. In assay [1], the “induction of secondary metabolite production” value is “induction of secondary metabolite production”.

The record behind these values is patent US11447742B2, “Compositions and methods for activation and overexpression of secondary metabolites in microorganisms” (Prospective Research, Inc., priority 2016, dated 2022).
